# Reference: patent US11707434B2, “Method for preparing organic solvent-free lyophilized cyclophosphamide” (KOREA UNITED PHARM. INC., priority 2018, dated 2023)
# Assay: Measurement of porosity (KOPTRI)
# Assay type: physicochemical
# Description: The porosity measurement was performed by the Korea Polymer Testing & Research Institute (KOPTRI), an accredited international testing agency, by requesting the samples prepared by the present applicant.
compound,measurement,setting,value
"O=P1(N(CCCl)CCCl)NCCCO1 (stereo not drawn) [Comparison 2, 2-[bis(2-chloroethyl)amino]tetrahydro-2H-1,3,2-oxazaphosphorin-2-oxide]",Apparent density,,1.31 g/mL
same,Porosity,,5.24%
same,Average diameter,pore size,0.02 μm
